Source: patent US20050090433A1 (priority 2002, published 2005)
≈ marks a conversion by molar mass, not a printed value. Read-outs that look alike come from different tables or passages of the source.

Key:
[1] = Rat quantitative tissue distribution (QTD) study; conditions: male rats, single IV infusion 20 mg/kg
Method: (§2) Excreta and more than 40 different tissues were collected through 70 days post-administration, and the tissue distribution and pharmacokinetics of drug-derived radioactivity were determined.
Rats (3 per time-point) were euthanized at 12, 24, 48, 72, 96, 120, 144, 168, 336, 840, 1176 and 1680 hours post dose for collection of blood, plasma, and tissues (including carcass). All samples were analyzed by LSC.
As part of the QTD studies, bile samples were collected from bile duct cannulated rats (4 animals) through 384 h (16 days) post-dose.

[2] = test system: bacteria; assay: Minimum bactericidal concentration; type: cell-based; conditions: 24 h, kill at least 99% of bacteria over 24 hour in vitro; in plasma
Text: The amount of dalbavancin administered may be any of the dosages disclosed herein.

[3] = test system: Streptococcus pyogenes; assay: Dalbavancin MIC, baseline isolates of SSTI trial; type: cell-based; conditions: read-out: Dalbavancin MIC, Streptococcus pyogenes, MITT, two-dose group
[4] = test system: methicillin-resistant S. aureus (MRSA); type: in vivo
Method: The effectiveness of the three treatment regimens was determined by assessing the patients' clinical response and the documented or presumed microbiological responses. The primary efficacy endpoint was clinical response at the follow-up visit for the clinically evaluable population. Clinical response, for both EOT and FU visits, was categorized as success (cure or improvement) or failure (including indeterminate results). […] Failure was defined as persistence of one or more local or systemic signs and symptoms of SSTI such that treatment with new or additional systemic antibacterial agents was required for the SSTI.
Microbiological outcome, a secondary efficacy variable, was assessed in the subpopulation of patients who had microbiologically documented SSTI (i.e., at least one identified baseline pathogen). A microbiologic response was assessed for each Gram-positive pathogen identified at baseline (i.e., eradication, presumed eradication, persistence, presumed persistence). For patients for whom follow-up cultures were not performed, the microbiologic responses for baseline pathogens were presumed on the basis of the clinical response. […] At both the EOT and FU visits, colonization and superinfection were assessed. […]

[5] = Pharmacokinetics and renal excretion in healthy subjects; conditions: human, in vivo, iv, 1000 mg; for half-life: healthy subjects, single 1000 mg IV
Method: Blood samples were drawn into heparinized tubes and centrifuged. Plasma was separated and stored frozen at −20° C. until time of assay. Plasma and urine samples were assayed for dalbavancin using validated LC/MS/MS methods. […] The peak concentration (Cmax) values were obtained directly from the observed data. The area under the plasma concentration-time curve (AUC) was calculated using the linear trapezoidal rule. Clearance (CL) was computed as dose/AUC. The elimination half life (t1/2) was estimated by linear regression of the log-linear portion of the log concentration versus time curve. Estimates of the volume of distribution (Vz) was calculated using the regression parameters, while the volume of distribution at steady state (Vss) was calculated from the area under the first moment curve (AUMC) multiplied by the dose and divided by AUC. The cumulative amount of dalbavancin excreted in urine was determined as the integrand of the urine excretion rate (AURC). CLR or renal clearance, was calculated as the ratio: CLR=AURC/AUC.

[6] = biological target: Bovine albumin (Bos taurus, UniProt P02769); assay: Protein binding by isothermal titration microcalorimetry
Method: (§3) Integrated heat effects, after correction for heats of dilution, were analyzed by non-linear regression using a simple single-site binding model with the standard Microcal ORIGIN software package. Raw data (μcal/sec) for each injection were integrated to give the total heat effect per addition, then divided by amount of injectant to give kcal/mole of injectant. The same integration was applied for control dilution effects, and this was subtracted from the actual titration data. This provided a differential of the binding curve in which the extent of binding is proportional to the total heat liberated (or absorbed). This was then analyzed by non-linear regression methods in terms of various standard binding models.

[7] = pH 7.4
[8] = test system: S. aureus; assay: Dalbavancin MIC, baseline isolates of SSTI trial; type: cell-based; conditions: MITT
[9] = biological target: Dog albumin (Canis lupus familiaris, UniProt P49822); assay: Protein binding by isothermal titration microcalorimetry; conditions: Apparent binding affinity Ka, pH 7.4, ± SD of fit
Method: as §3

[10] = test system: Gram-positive pathogen; assay: SSTI trial: microbiologic response, all Gram-positive organisms; type: in vivo, human; conditions: single dose; EOT and FU, microbiologically-evaluable and MITT populations
Method: (§1) This randomized, controlled study evaluated the safety and efficacy of two dose regimens of dalbavancin.
There were 62 patients randomized into the study, all received at least one dose of study medication. Four study populations were evaluated for safety and efficacy and were defined as follows: The intent-to-treat (I) population included all patients who received at least one dose of study drug (all randomized study subjects).
Microbiological outcome, a secondary efficacy variable, was assessed in the subpopulation of patients who had microbiologically documented SSTI (i.e., at least one identified baseline pathogen). A microbiologic response was assessed for each Gram-positive pathogen identified at baseline (i.e., eradication, presumed eradication, persistence, presumed persistence). For patients for whom follow-up cultures were not performed, the microbiologic responses for baseline pathogens were presumed on the basis of the clinical response. Microbiologic response by patient at the EOT and FU visits was graded as success (i.e., all Gram-positive organisms eradicated or presumed eradicated) or failure (i.e., at least one Gram-positive organism persisted or presumed to have persisted, multiple pathogens with partial eradication). At both the EOT and FU visits, colonization and superinfection were assessed. […]

[11] = test system: human α-glycoprotein; conditions: pH 7.4
Method: as §3

[12] = Safety assessments in healthy subjects; conditions: single 1000 mg IV
Method: (§4) Adverse events were recorded and assessed for severity and relationship to study drug. Laboratory data (chemistry panel, CBC with differential, urinalysis) were collected and assessed for changes from baseline and out-of-range values. ECG, physical examination, and vital signs were obtained, and changes from baseline were assessed.

[13] = SSTI trial: adverse events; type: in vivo, human
Method: as §1
Each patient who received at least one dose of study drug (ITT population) was evaluated for drug safety through monitoring of adverse events (AE), including abnormal clinical laboratory test results and vital signs. AE were rated by the investigator as to their severity (mild, moderate, severe, life-threatening), and by the relationship to the study drug (not related, unlikely related, possibly related, or probably related).

[14] = biological target: Human albumin (Homo sapiens, UniProt P02768); conditions: pH 7.4
Method: as §3

[15] = test system: Gram-positive isolates, including MRSA; assay: Dalbavancin MIC, Gram-positive isolates of SSTI trial; type: cell-based; conditions: Staphylococcus aureus, read-out: MICs against Gram-positive isolates, including MRSA
[16] = test system: Group B streptococcus; assay: Dalbavancin MIC, baseline isolates of SSTI trial; type: cell-based
[17] = human, in vivo
Method: as §4

[18] = rat, in vivo
Method: as §2
Following dose administration, urine and feces were collected at 24 hour intervals to 14, 36, and 70 days after the dose (3 rats/final collection time). Water and methanol cage washes were also collected. Carcasses were analyzed at the end of the collection period. AU samples were analyzed for total radioactivity content by liquid scintillation counting (LSC).

Sequence of Human albumin (P02768 25-609): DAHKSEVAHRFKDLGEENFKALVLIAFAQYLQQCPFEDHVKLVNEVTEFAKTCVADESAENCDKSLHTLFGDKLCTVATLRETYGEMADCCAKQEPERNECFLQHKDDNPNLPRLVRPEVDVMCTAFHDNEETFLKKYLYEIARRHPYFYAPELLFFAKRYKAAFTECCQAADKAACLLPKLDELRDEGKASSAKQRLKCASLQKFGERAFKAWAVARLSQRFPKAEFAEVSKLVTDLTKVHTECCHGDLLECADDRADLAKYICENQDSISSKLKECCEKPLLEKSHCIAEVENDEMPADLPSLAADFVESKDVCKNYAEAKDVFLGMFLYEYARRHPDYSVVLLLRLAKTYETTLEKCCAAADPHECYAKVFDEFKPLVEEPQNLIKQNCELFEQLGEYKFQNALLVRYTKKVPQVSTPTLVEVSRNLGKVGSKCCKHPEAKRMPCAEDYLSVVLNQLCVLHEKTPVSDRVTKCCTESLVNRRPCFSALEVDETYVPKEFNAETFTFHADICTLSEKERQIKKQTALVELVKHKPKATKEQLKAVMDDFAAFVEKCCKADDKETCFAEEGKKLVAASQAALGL
Sequence of Dog albumin (P49822 25-608): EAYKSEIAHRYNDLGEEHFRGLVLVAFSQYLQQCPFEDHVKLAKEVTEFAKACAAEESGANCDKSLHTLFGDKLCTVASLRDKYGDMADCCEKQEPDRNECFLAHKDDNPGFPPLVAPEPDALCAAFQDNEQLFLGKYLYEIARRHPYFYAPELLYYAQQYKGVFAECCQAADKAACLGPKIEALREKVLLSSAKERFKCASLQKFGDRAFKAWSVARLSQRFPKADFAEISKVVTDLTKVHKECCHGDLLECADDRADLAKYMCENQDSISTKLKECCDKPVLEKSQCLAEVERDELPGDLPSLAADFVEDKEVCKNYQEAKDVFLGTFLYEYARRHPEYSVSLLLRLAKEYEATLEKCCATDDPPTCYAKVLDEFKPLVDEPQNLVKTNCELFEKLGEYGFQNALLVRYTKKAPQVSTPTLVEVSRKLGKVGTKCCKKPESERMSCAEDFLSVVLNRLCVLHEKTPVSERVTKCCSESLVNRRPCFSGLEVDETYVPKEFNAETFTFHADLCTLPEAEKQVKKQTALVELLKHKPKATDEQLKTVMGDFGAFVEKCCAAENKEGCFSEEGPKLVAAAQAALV
Sequence of Bovine albumin (P02769 25-607): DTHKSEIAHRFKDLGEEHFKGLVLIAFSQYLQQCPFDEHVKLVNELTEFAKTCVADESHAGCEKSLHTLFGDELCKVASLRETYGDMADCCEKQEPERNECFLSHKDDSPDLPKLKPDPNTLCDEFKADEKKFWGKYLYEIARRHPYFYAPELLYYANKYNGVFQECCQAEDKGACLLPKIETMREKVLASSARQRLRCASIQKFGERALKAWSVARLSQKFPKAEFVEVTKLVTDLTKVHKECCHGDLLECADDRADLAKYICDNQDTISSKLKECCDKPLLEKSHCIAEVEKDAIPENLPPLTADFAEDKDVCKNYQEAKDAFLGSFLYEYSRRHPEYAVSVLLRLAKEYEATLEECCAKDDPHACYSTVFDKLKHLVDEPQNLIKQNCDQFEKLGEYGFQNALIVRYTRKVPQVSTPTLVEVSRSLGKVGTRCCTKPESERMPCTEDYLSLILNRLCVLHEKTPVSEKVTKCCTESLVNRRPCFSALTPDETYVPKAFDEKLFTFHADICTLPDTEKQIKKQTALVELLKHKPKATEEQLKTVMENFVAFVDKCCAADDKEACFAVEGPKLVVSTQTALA

## CN[C@H]1C(=O)N[C@@H]2Cc3ccc(cc3)Oc3cc4cc(c3O[C@@H]3O[C@H](C(=O)O)[C@@H](O)[C@H](O)[C@H]3NC(=O)CCCCCCCCC(C)C)Oc3ccc(cc3Cl)[C@@H](O)[C@@H]3NC(=O)[C@H](NC(=O)[C@@H]4NC(=O)[C@@H](NC2=O)c2cc(cc(O)c2Cl)Oc2cc1ccc2O)c1ccc(O)c(c1)-c1c(O[C@H]2O[C@H](CO)[C@@H](O)[C@H](O)[C@@H]2O)cc(O)cc1[C@@H](C(=O)NCCCN(C)C)NC3=O [Dalbavancin]
[1]
  Skin concentrations of drug-derived radioactivity relative to plasma: as high as or higher than in plasma
[2]
  MBC: 4 to 10 µg/mL (≈ 2200 to 5500 nM)
[3]
  MIC: 0.016 µg/mL (≈ 8.81 nM)
[4]; single-dose 1100 mg IV day 1
  Clinical success rate at FU, MITT patients with MRSA: 50%
[4]; two-dose 1000 mg IV day 1, 500 mg day 8
  Clinical success rate at FU, MITT patients with MRSA: 80%
[5]; both sexes
  AUC: 23800 µg·h/mL
  clearance: 0.718 mL/min
  half-life: 9 to 12 days
[5]; both sexes, Apparent volume of distribution
  Vd: > 10 L
[5]; both sexes, CLR
  CL renal: 0.3 mL/min
[5]; both sexes, VSS
  Vd: 11.5 L
[5]; both sexes, VZ
  Vd: 16 L
[5]; both sexes, mean
  half-life: 10.7 days
[5]; both
  CL: 0.0431 L/h
  CLR: 0.0181 L/h
[6]
  Kd: 7.25 µM
[7]
  Solubility in the presence of HSA: significantly increased
[8]; standard of care group
  Dalbavancin MIC range, All S. aureus: 10 (0.016-0.25) mg/L
[8]; two-dose group
  Dalbavancin MIC, All S. aureus: 11 (0.12) mg/L
[9]; 25° C.
  Kd: 16.1 µM
[9]; 37° C.
  Kd: 20 µM
[10]
  Microbiologic success rates at both visits (summary): < 40%
[11]; 1 μM
  Calculated percent Binding, Human α-glycoprotein: 73.0%
[11]; 10 μM
  Calculated percent Binding, Human α-glycoprotein: 68.2%
[11]; 100 μM
  Calculated percent Binding, Human α-glycoprotein: 26.2%
[11]; 165 μM
  Calculated percent Binding, Human α-glycoprotein: 16.9%
[11]; 250 μM
  Calculated percent Binding, Human α-glycoprotein: 11.4%
[11]; 500 μM
  Calculated percent Binding, Human α-glycoprotein: 5.9%
[12]
  Deaths or serious adverse events: No subject deaths or serious adverse events
[13]; human, in vivo
  AE leading to discontinuation of study medication: 0%
  ≧1 AE: 95%
  ≧1 severe AE: 2 (10%)
[13]; in vivo
  Hepatotoxicity or nephrotoxicity: no evidence that dalbavancin induces any degree of clinically significant hepatotoxicity or nephrotoxicity
  Serious adverse events related to study drug: no serious adverse events related to study drug treatment
  Tolerability: well tolerated
[13]; single-dose (N = 20)
  ≧1 AE possibly/probably related to treatment: 55%
[13]; two-dose (N = 21)
  ≧1 AE possibly/probably related to treatment: 48%
[14]; 1 μM
  Calculated percent Binding, Human albumin: 98.8%
[14]; 10 μM
  Calculated percent Binding, Human albumin: 98.8%
[14]; 100 μM
  Calculated percent Binding, Human albumin: 98.7%
[14]; 165 μM
  Calculated percent Binding, Human albumin: 98.6%
[14]; 250 μM
  Calculated percent Binding, Human albumin: 98.5%
[14]; 500 μM
  Calculated percent Binding, Human albumin: 98.0%
[15]
  MIC: 0.016 to 0.25 µg/mL (≈ 8.81 to 138 nM)
[16]; MITT, standard of care group
  Dalbavancin MIC, Group B streptococcus: 2 (0.016) mg/L
[16]; Streptococcus, read-out: Dalbavancin MIC, Group B streptococcus, MITT, two-dose group
  MIC: 0.016 µg/mL (≈ 8.81 nM)
[17]
  Eosinophilia, AE possibly related to study medication: 500 µL⁻¹
  Intensity of reported AEs: all of mild intensity
[18]; male, Sprague-Dawley, 1680 h
  Dose remaining in the carcass: 4.5%
[18]; iv, 20 mg/kg
  Radioactivity administered eliminated in urine and feces within the first week: Approximately half
  Share of excreted radioactivity eliminated in feces: ⅓
  Share of excreted radioactivity eliminated in urine: ⅔
